Where a name gives a salt, the structure may show the parent alone.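 In this assay, cells in 96-well plates receive the compound at five concentrations for 48 hours. Endpoints are linearly interpolated between the surrounding concentrations. At the GI50, growth is halved.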 Calls of active or inactive are those of the source. No stated cut-off is given here; in the data, active = GI50 up to about 1.1 µM and inactive = higher.
Columns and labels:
Test in all cases: DTP human tumour cell line panel, 48 h
HOP-62 = system: HOP-62
UACC-62 = system: UACC-62
NCI-H522 = system: NCI-H522
MDA-MB-231 = system: MDA-MB-231
Hs-578T = system: Hs-578T
HCT-116 = system: HCT-116
TK-10 = system: TK-10
MDA-N = system: MDA-N
CAKI-1 = system: CAKI-1
M14 = system: M14
SK-MEL-28 = system: SK-MEL-28
PC-3 = system: PC-3
EKVX = system: EKVX
HOP-92 = system: HOP-92
NCI-H460 = system: NCI-H460
RPMI-8226 = system: RPMI-8226
U-251 = system: U-251
SN12C = system: SN12C
SK-OV-3 = system: SK-OV-3
ACHN = system: ACHN

Measured: GI50

COc1ccc(CNc2nc3ccccc3nc2C(=O)O)cc1
inactive: HOP-62 > 100 µM | UACC-62 > 100 µM | NCI-H522 72.9 µM | MDA-MB-231 > 100 µM | Hs-578T > 100 µM | HCT-116 51.6 µM | TK-10 > 100 µM | MDA-N > 100 µM | CAKI-1 > 100 µM | M14 > 100 µM | SK-MEL-28 > 100 µM | PC-3 > 100 µM | EKVX 78.2 µM | HOP-92 70.5 µM | NCI-H460 55.5 µM | RPMI-8226 21.7 µM | U-251 58.6 µM | SN12C > 100 µM

CCC(=O)NCC1CCCN2CCCCC12 (stereo unspecified)
inactive: UACC-62 > 100 µM | MDA-MB-231 > 100 µM | Hs-578T > 100 µM | HCT-116 > 100 µM | TK-10 > 100 µM | SK-OV-3 > 100 µM | MDA-N > 100 µM | CAKI-1 > 100 µM | SK-MEL-28 > 100 µM | PC-3 > 100 µM | EKVX > 100 µM | ACHN > 100 µM | HOP-92 > 100 µM | NCI-H460 > 100 µM | RPMI-8226 > 100 µM | U-251 > 100 µM | SN12C > 100 µM

O=C(OCCN1CCCCCC1)C(c1ccsc1)C1CCCCC1 (stereo unspecified) [CETIEDIL CITRATE]
inactive: HOP-62 15.1 µM | MDA-MB-231 16.7 µM | Hs-578T 20.7 µM | HCT-116 14.1 µM | TK-10 16 µM | SK-OV-3 16.9 µM | MDA-N 14 µM | CAKI-1 14.5 µM | M14 17.3 µM | SK-MEL-28 20.3 µM | PC-3 18.4 µM | EKVX 17.1 µM | ACHN 17.1 µM | HOP-92 13.9 µM | NCI-H460 16.2 µM | RPMI-8226 13.5 µM | U-251 17.2 µM | SN12C 17.9 µM

Cc1ccc(O)c(-c2cc(-c3ccccc3)nc(/N=C\c3ccccc3)n2)c1
inactive: HOP-62 18.1 µM | UACC-62 8.17 µM | NCI-H522 > 100 µM | MDA-MB-231 77.3 µM | Hs-578T 25.3 µM | HCT-116 28.4 µM | TK-10 97.1 µM | MDA-N 94.2 µM | M14 > 100 µM | SK-MEL-28 > 100 µM | PC-3 > 100 µM | EKVX 47.8 µM | ACHN 13.1 µM | HOP-92 43.7 µM | NCI-H460 17.9 µM | U-251 20.9 µM | SN12C 42.9 µM

c1ccc2c(-c3ccnc(-c4c[nH]c5ccccc45)n3)c[nH]c2c1
inactive: HOP-62 10.4 µM | UACC-62 1.95 µM | MDA-MB-231 1.85 µM | Hs-578T 2.81 µM | HCT-116 4.36 µM | TK-10 8.67 µM | SK-OV-3 10.7 µM | MDA-N 2.78 µM | CAKI-1 4.25 µM | M14 1.99 µM | SK-MEL-28 6.9 µM | PC-3 2.72 µM | EKVX 6.4 µM | ACHN 3.13 µM | HOP-92 1.7 µM | NCI-H460 2.87 µM | RPMI-8226 1.91 µM | U-251 3.86 µM | SN12C 2.78 µM

CCOC(=O)c1cc(Br)c(-c2onc(C)c2Br)[nH]1
inactive: HOP-62 18.3 µM | UACC-62 36.9 µM | MDA-MB-231 17.1 µM | Hs-578T 26.7 µM | HCT-116 28.8 µM | SK-OV-3 25.9 µM | MDA-N > 100 µM | CAKI-1 45.7 µM | M14 66.2 µM | SK-MEL-28 > 100 µM | PC-3 > 100 µM | EKVX 27.9 µM | HOP-92 48.1 µM | NCI-H460 65.6 µM | RPMI-8226 > 100 µM | U-251 19.1 µM | SN12C 80.7 µM

From ChEMBL document CHEMBL1201862, “PubChem BioAssay data set” (2004)
